Biological target: recombinant human integrin αVβ6 (Homo sapiens (Human), UniProt P06756+P18564)
Experiment: Solid phase integrin αVβ6 binding assay
Conditions: inhibition of recombinant TGFβ1 LAP binding to coated integrin, IC50 presented in four ranges, read-out: αvβ6 Inhibition IC50 (nM) - range
Description: (§1) Microplates were coated with recombinant human integrin αVβ6 (2 μg/mL) in PBS (100 μL/well 25° C., overnight). The coating solution was removed, washed with wash buffer (0.05% Tween 20; 0.5 mM MnCl2; in 1×TBS). The plate was blocked with 200 μL/well of Block Buffer (1% BSA; 5% sucrose; 0.5 mM MnCl2; in 1×TBS) at 37° C. for 2 h. Dilutions of testing compounds and recombinant TGFβ1 LAP (0.67 μg/mL) in binding buffer (0.05% BSA; 2.5% sucrose; 0.5 mM MnCl2; in 1×TBS) were added. The plate was incubated for 2 hours at 25° C., washed, and incubated for 1 hour with Biotin-Anti-hLAP. Bound antibody was detected by peroxidase-conjugated streptavidin. The IC50 values for testing compounds were calculated by a four-parameter logistic regression.
The compounds tested were compound samples prepared according to procedures described in the Synthetic Examples section, with the stereochemical purity as indicated in the Examples.
as §1, with “A third series of exemplary compounds was selected for testing in the solid phase integrin αVβ6 binding assay. The compounds tested were compound samples prepared according to procedures described in the Synthetic Examples section, with the stereochemical purity as indicated in the Examples. As in Example B1, microplates were” for “Microplates were”, “(0.67 g/mL)” for “(0.67 μg/mL)”

Sequence of recombinant human integrin αVβ6 (P06756 31-992): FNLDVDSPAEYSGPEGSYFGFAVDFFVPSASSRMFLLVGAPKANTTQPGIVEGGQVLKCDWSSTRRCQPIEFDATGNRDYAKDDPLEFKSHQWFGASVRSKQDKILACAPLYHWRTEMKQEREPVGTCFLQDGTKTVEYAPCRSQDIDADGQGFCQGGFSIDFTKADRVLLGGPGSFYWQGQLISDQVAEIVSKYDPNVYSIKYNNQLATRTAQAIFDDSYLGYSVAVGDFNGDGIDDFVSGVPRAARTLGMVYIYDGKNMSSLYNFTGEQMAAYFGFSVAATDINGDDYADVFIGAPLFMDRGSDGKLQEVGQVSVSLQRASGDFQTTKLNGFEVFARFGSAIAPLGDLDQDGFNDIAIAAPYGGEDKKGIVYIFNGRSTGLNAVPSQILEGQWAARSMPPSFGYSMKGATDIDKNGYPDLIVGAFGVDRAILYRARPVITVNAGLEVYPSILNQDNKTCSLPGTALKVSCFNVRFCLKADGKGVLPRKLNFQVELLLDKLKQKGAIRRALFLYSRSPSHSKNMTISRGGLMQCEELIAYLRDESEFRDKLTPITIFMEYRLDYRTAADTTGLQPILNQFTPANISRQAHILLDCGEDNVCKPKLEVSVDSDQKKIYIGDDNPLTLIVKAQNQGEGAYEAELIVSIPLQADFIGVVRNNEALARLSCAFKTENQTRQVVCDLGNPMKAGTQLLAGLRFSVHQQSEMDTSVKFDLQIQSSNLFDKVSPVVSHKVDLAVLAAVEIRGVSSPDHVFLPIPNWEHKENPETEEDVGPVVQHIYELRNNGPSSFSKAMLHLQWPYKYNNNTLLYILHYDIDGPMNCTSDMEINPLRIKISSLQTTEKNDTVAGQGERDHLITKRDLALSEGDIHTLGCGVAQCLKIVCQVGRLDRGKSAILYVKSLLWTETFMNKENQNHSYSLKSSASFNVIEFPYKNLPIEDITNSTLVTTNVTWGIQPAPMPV
Sequence of recombinant human integrin αVβ6 (P18564 22-707): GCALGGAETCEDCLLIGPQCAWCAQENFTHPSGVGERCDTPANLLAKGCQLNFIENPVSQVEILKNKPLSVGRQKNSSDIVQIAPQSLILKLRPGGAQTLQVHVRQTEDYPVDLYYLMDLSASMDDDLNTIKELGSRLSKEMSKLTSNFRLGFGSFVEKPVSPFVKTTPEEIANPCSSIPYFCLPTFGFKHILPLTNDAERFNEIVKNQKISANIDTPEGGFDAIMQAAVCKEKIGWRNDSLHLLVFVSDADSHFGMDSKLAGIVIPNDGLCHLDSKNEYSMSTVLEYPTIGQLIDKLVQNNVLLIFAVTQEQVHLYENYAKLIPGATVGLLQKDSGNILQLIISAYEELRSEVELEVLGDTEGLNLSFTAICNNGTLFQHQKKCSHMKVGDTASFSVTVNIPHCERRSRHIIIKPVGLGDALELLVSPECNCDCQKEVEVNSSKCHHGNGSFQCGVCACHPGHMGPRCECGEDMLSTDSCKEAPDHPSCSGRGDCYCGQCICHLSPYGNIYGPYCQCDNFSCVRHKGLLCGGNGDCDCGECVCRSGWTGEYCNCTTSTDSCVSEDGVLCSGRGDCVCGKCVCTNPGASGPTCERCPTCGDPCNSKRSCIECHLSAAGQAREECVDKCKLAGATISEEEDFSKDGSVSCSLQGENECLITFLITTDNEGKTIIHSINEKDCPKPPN

SMILES	IC50 [nM]
O=C(O)[C@H](CCN(CCCCc1ccc2c(n1)NCCC2)CCOc1ccccn1)Nc1ncnc2ccccc12 [Compound 49, (S)-4-((2-(pyridin-2-yloxy)ethyl) (4-(5,6,7,8-tetrahydro-1,8-naphthyridin-2-yl)butyl)amino)-2-(quinazolin-4-ylamino) butanoic Acid]	< 50
O=C(O)[C@H](CCN(CCCCc1ccc2c(n1)NCCC2)CCOCC(F)F)Nc1ncnc2ccccc12 [Compound 50, (S)-4-((2-(2,2-difluoroethoxy)ethyl) (4-(5,6,7,8-tetrahydro-1,8-naphthyridin-2-yl)butyl)amino)-2-(quinazolin-4-ylamino) butanoic Acid]	< 50
O=C(O)[C@H](CCN(CCCCc1ccc2c(n1)NCCC2)CCOCC(F)(F)F)Nc1ncnc2cccnc12 [Compound 51, (S)-2-(pyrido[3,2-d]pyrimidin-4-ylamino)-4-((4-(5,6,7,8-tetrahydro-1,8-naphthyridin-2-yl)butyl) (2-(2,2,2-trifluoroethoxy)ethyl)amino) butanoic Acid]	< 50
Cc1ncccc1OCCN(CCCCc1ccc2c(n1)NCCC2)CC[C@H](Nc1ncnc2ccccc12)C(=O)O [Compound 52, (S)-4-((2-((2-methylpyridin-3-yl)oxy)ethyl) (4-(5,6,7,8-tetrahydro-1,8-naphthyridin-2-yl)butyl)amino)-2-(quinazolin-4-ylamino) butanoic Acid]	< 50
Cc1nc(N[C@@H](CCN(CCCCc2ccc3c(n2)NCCC3)CCOc2cccnc2C)C(=O)O)c2ccc(F)cc2n1 [Compound 53, (S)-2-((7-fluoro-2-methylquinazolin-4-yl)amino)-4-((2-((2-methylpyridin-3-yl)oxy)ethyl) (4-(5,6,7,8-tetrahydro-1,8-naphthyridin-2-yl)butyl)amino) butanoic Acid]	< 50
Cc1ncccc1OCCN(CCCCc1ccc2c(n1)NCCC2)CC[C@H](Nc1ncnc2cccnc12)C(=O)O [Compound 54, (S)-4-((2-((2-methylpyridin-3-yl)oxy)ethyl) (4-(5,6,7,8-tetrahydro-1,8-naphthyridin-2-yl)butyl)amino)-2-(pyrido[3,2-d]pyrimidin-4-ylamino) butanoic Acid]	< 50
CCOCCN(CCCCc1ccc2c(n1)NCCC2)CC[C@H](Nc1ncnc2ccccc12)C(=O)O [Compound 55, (S)-4-((2-ethoxyethyl) (4-(5,6,7,8-tetrahydro-1,8-naphthyridin-2-yl)butyl)amino)-2-(quinazolin-4-ylamino) butanoic Acid]	< 50
Cc1ccc(OCCN(CCCCc2ccc3c(n2)NCCC3)CC[C@H](Nc2nc(C)nc3cc(F)ccc23)C(=O)O)cn1 [Compound 56, (S)-2-((7-fluoro-2-methylquinazolin-4-yl)amino)-4-((2-((6-methylpyridin-3-yl)oxy)ethyl) (4-(5,6,7,8-tetrahydro-1,8-naphthyridin-2-yl)butyl)amino) butanoic Acid]	< 50
Cc1ccc(OCCN(CCCCc2ccc3c(n2)NCCC3)CC[C@H](Nc2ncnc3cccnc23)C(=O)O)cn1 [Compound 57, (S)-4-((2-((6-methylpyridin-3-yl)oxy)ethyl) (4-(5,6,7,8-tetrahydro-1,8-naphthyridin-2-yl)butyl)amino)-2-(pyrido[3,2-d]pyrimidin-4-ylamino) butanoic Acid]	< 50
O=C(O)[C@H](CCN(CCCCc1ccc2c(n1)NCCC2)CCOc1cncc(F)c1)Nc1ncnc2ccccc12 [Compound 58, (S)-4-((2-((5-fluoropyridin-3-yl)oxy)ethyl) (4-(5,6,7,8-tetrahydro-1,8-naphthyridin-2-yl)butyl)amino)-2-(quinazolin-4-ylamino) butanoic Acid]	< 50
Cc1ccc(OCCN(CCCCc2ccc3c(n2)NCCC3)CC[C@H](Nc2ncnc3ccccc23)C(=O)O)cn1 [Compound 59, (S)-4-((2-((6-methylpyridin-3-yl)oxy)ethyl) (4-(5,6,7,8-tetrahydro-1,8-naphthyridin-2-yl)butyl)amino)-2-(quinazolin-4-ylamino) butanoic Acid]	< 50
O=C(O)[C@H](CCN(CCCCc1ccc2c(n1)NCCC2)CCOc1cncc(F)c1)Nc1ncnc2cccnc12 [Compound 60, (S)-4-((2-((5-fluoropyridin-3-yl)oxy)ethyl) (4-(5,6,7,8-tetrahydro-1,8-naphthyridin-2-yl)butyl)amino)-2-(pyrido[3,2-d]pyrimidin-4-ylamino) butanoic Acid]	< 50
Cc1nc(N[C@@H](CCN(CCCCc2ccc3c(n2)NCCC3)CCOc2cncc(F)c2)C(=O)O)c2ccc(F)cc2n1 [Compound 61, (S)-2-((7-fluoro-2-methylquinazolin-4-yl)amino)-4-((2-((5-fluoropyridin-3-yl)oxy)ethyl) (4-(5,6,7,8-tetrahydro-1,8-naphthyridin-2-yl)butyl)amino) butanoic Acid]	< 50
CO[C@H](C)CN(CCCCc1ccc2c(n1)NCCC2)CC[C@H](Nc1ncnc2ccccc12)C(=O)O [Compound 62, (S)-4-(((R)-2-methoxypropyl) (4-(5,6,7,8-tetrahydro-1,8-naphthyridin-2-yl)butyl)amino)-2-(quinazolin-4-ylamino) butanoic Acid]	< 50
CC(=O)NCCN(CCCCc1ccc2c(n1)NCCC2)CC[C@H](Nc1ncnc2ccccc12)C(=O)O [Compound 63, (S)-4-((2-acetamidoethyl) (4-(5,6,7,8-tetrahydro-1,8-naphthyridin-2-yl)butyl)amino)-2-(quinazolin-4-ylamino) butanoic Acid]	< 50
CN(C)C(=O)CN(CCCCc1ccc2c(n1)NCCC2)CC[C@H](Nc1ncnc2ccccc12)C(=O)O [Compound 64, (S)-4-((2-(dimethylamino)-2-oxoethyl) (4-(5,6,7,8-tetrahydro-1,8-naphthyridin-2-yl)butyl)amino)-2-(quinazolin-4-ylamino) butanoic Acid]	< 50
CO[C@H](C)CN(CCCCc1ccc2c(n1)NCCC2)CC[C@H](Nc1nc(C)nc2cc(F)ccc12)C(=O)O [Compound 65, (S)-2-((7-fluoro-2-methylquinazolin-4-yl)amino)-4-(((R)-2-methoxypropyl) (4-(5,6,7,8-tetrahydro-1,8-naphthyridin-2-yl)butyl)amino) butanoic Acid]	< 50
CO[C@H](C)CN(CCCCc1ccc2c(n1)NCCC2)CC[C@H](Nc1nc(C)nc2ccccc12)C(=O)O [Compound 66, (S)-4-(((R)-2-methoxypropyl) (4-(5,6,7,8-tetrahydro-1,8-naphthyridin-2-yl)butyl)amino)-2-((2-methylquinazolin-4-yl)amino) butanoic Acid]	< 50
COCCN(CCCCc1ccc2c(n1)NCCC2)CC[C@H](Nc1nccnc1C#N)C(=O)O [Compound 67, (S)-2-((3-cyanopyrazin-2-yl)amino)-4-((2-methoxyethyl) (4-(5,6,7,8-tetrahydro-1,8-naphthyridin-2-yl)butyl)amino) butanoic Acid]	< 50
CO[C@H](C)CN(CCCCc1ccc2c(n1)NCCC2)CC[C@H](Nc1ncc(C#N)cn1)C(=O)O [Compound 68, (S)-2-((5-cyanopyrimidin-2-yl)amino)-4-(((R)-2-methoxypropyl) (4-(5,6,7,8-tetrahydro-1,8-naphthyridin-2-yl)butyl)amino) butanoic Acid]	< 50
CO[C@H](C)CN(CCCCc1ccc2c(n1)NCCC2)CC[C@H](Nc1ncc(C(F)(F)F)cn1)C(=O)O [Compound 69, (S)-4-(((R)-2-methoxypropyl) (4-(5,6,7,8-tetrahydro-1,8-naphthyridin-2-yl)butyl)amino)-2-((5-(trifluoromethyl)pyrimidin-2-yl)amino) butanoic Acid]	< 50
CO[C@H](C)CN(CCCCc1ccc2c(n1)NCCC2)CC[C@H](Nc1ncc(Br)cn1)C(=O)O [Compound 70, (S)-2-((5-bromopyrimidin-2-yl)amino)-4-(((R)-2-methoxypropyl) (4-(5,6,7,8-tetrahydro-1,8-naphthyridin-2-yl)butyl)amino) butanoic Acid]	< 50
CO[C@H](C)CN(CCCCc1ccc2c(n1)NCCC2)CC[C@H](Nc1ncnc2[nH]ncc12)C(=O)O [Compound 71, (S)-2-((1H-pyrazolo[3,4-d]pyrimidin-4-yl)amino)-4-(((R)-2-methoxypropyl) (4-(5,6,7,8-tetrahydro-1,8-naphthyridin-2-yl)butyl)amino) butanoic Acid]	< 50
CO[C@H](C)CN(CCCCc1ccc2c(n1)NCCC2)CC[C@H](Nc1ccnc(C(F)(F)F)n1)C(=O)O [Compound 72, (S)-4-(((R)-2-methoxypropyl) (4-(5,6,7,8-tetrahydro-1,8-naphthyridin-2-yl)butyl)amino)-2-((2-(trifluoromethyl)pyrimidin-4-yl)amino) butanoic Acid]	< 50
